As a reminder, the IC50 is the midpoint of a concentration-inhibition curve.

We go through one substance from US10130677B2, “Antimicrobial peptide and uses thereof” (priority 2013, dated 2018).

The subject of test [1] is LTA (S. aureus)-induced IL-8 production. In words: LTA neutralization in whole human blood. The test is classed as cell-based. Conditions: LTA-induced IL-8; blood from one donor. The text has this:
The term “anti-inflammatory activity” of a polypeptide as used herein refers to inhibiting, reducing or preventing an inflammatory response in a subject that has been infected by microbes, e.g. bacteria, viruses, fungi, and/or parasites. Anti-inflammatory activity of polypeptides of the invention is achieved by inhibiting, reducing or preventing the release of pro-inflammatory microbial compounds, such as lipoteichoic acid (LTA), peptidoglycan (PG) and/or lipopolysaccharides (LPS). Anti-inflammatory activity can be measured by methods known in the art. Examples of such method are a LPS neutralization assay and a LTA neutralization assay as described in the Examples of this application. In such method, a polypeptide of the invention is mixed with a fixed concentration of LPS or LTA, such as 500 ng/ml LPS or 2 mg/ml LTA, and incubated for 30 min. Thereafter, these mixtures were added to diluted fresh human whole blood and 20 hours thereafter the level of cytokines (e.g. 1L-8 for LTA and 1L-12p40 for LPS) in the blood sample are measured by ELISA.
(§1) Peptides were pre-incubated with 500 ng/ml LPS (E. coli 054) or 2 mg/ml LTA (S. aureus, endotoxin-free) or 1×10^9 CFU/ml of UV-killed S. aureus JAR060131 for 30 min at 37° C. Diluted whole human blood was stimulated with the peptide-LPS/LTA/S. aureus mixtures for 20 hours at 37° C. IL-12p40 and IL-8 levels in supernatants were determined using ELISA.

The subject of another test is Candida albicans Y-O1. The test is classed as cell-based. As to the method: Peptides were incubated with 1×10^5 cells/ml of a mid-logarithmic culture of Candida albicans Y-O1, without or with addition of pooled human plasma at a final concentration of 50%. Antimicrobial activity is expressed as the 99% lethal concentration (LC99), i.e., the lowest peptide concentration at which ≥99% of cells were killed after 2 hours of incubation at 37° C. under shaking conditions.

The test system of test [2] is Pseudomonas aeruginosa PAO1. It is filed as cell-based. The protocol:
(§2) Peptides were incubated with 1×10^6 CFU/ml of a mid-logarithmic culture of S. aureus JAR060131, methicillin resistant S. aureus (MRSA) LUH14616, Staphylococcus epidermidis RP62a, and Pseudomonas aeruginosa PAO1 in PBS without or with addition of pooled human plasma (Sanquin, Amsterdam, the Netherlands) at a final concentration of 50%. Antimicrobial activity is expressed as the 99.9% lethal concentration (LC99.9), i.e., the lowest peptide concentration which killed ≥99.9% of bacteria after 2 hours of incubation at 37° C. under shaking conditions.

The test system of test [3] is Staphylococcus epidermidis RP62a. The test is classed as cell-based. The protocol: as §2
A further test concerns A. niger PagsA-lux. In words: Effect on fungal growth. It is filed as cell-based, Aspergillus niger. The protocol:
The effect of the peptides on fungal growth was assessed using Aspergillus niger. Peptides were incubated with 7.5×10^4 spores/ml of A. niger PagsA-lux in PBS without or with addition of pooled human plasma at a final concentration of 25%. As positive control, spores were treated with the antifungal caspofungin (Cancidas). Absorbance was measured over time and at 16 hours, fungal growth was visualized using light microscopy.

Test [4] concerns UV-killed S. aureus JAR060131-induced IL-8 production. Kind of test: S. aureus neutralization in whole human blood. It is filed as cell-based. Conditions: UV-killed S. aureus JAR060131-induced IL-8; blood from one donor. As to the method: as §1
Where [5] appears, read: 50% plasma, mid-logarithmic culture, median (Table 3).

Like-named read-outs stand apart in the source and are kept apart here.

Consider “Ac-IGKEFKRIVERIKRFLRELVRPLR-NH2 [OP-145, JIGKEFKRIVERIKRFLRELVRPLRB, reference compound]”, for which the IC50 was determined as 0.781 µM in test [1] and 0.195 µM in test [4]. Besides, the “antifungal activity against C. albicans Y-O1 (in words)” value with Candida albicans Y-O1 (50% plasma, at 204.8 μM) is given as “no antifungal activity was observed”; in the test on Candida albicans Y-O1 (PBS, at 51.2 μM), “no antifungal activity”. For the same substance, the LC99 is above 204.8 µM in the test on Candida albicans Y-O1 (50% plasma, mean of two experiments) and above 51.2 µM in the test with Candida albicans Y-O1 (Y-O1, 2 h). Moreover, the LC99.9 was above 204.8 µM in test [2] (setting [5]), 3.2 µM in test [2] (PAO1), 204.8 µM in test [3] (setting [5]) and 0.8 µM in test [3] (RP62a). The “concentration inhibiting A. niger growth” value in the test on A. niger PagsA-lux (25% plasma, light micrographs only, 16 hours (FIG. 2)) was found to be 204.8 µM. Further, the “concentration inhibiting A. niger growth (by >99.9%)” value in the test with A. niger PagsA-lux (PBS, optical density (FIG. 1)) was 3.2 µM.
